# According to patent US20260001928A1 (CORTERIA PHARMACEUTICALS, priority 2022, published 2026):
# *1 amine or outer side, *2 acyl side, *3 side chain or, on linkers, in order; H or OH if unused. Where a SMILES comes first, the peptide text is derived from it. Side-chain parts run from the residue outwards. [ ]: non-standard residue; d: D form. The star is where a group is joined. C18 diacid = O=C(O)CCCCCCCCCCCCCCCCC(=O)*; C16 diacid = O=C(O)CCCCCCCCCCCCCCC(=O)*; γGlu = O=C(O)[C@H](CCC(=O)[*:2])N[*:1]; AEEA = NCCOCCOCC(=O)O; Aib = CC(C)(N)C(=O)O
# Tested on: human LAD2 cells
# Type: cell-based
# Experimental: LAD2 cells (20000 cells/well, 96-well plates and 10,000 cells/well in 384-well plates) were incubated with compounds for 30 min. The R-hexosaminidase released into the supernatants and in cell lysates was quantified using the fluorogenic substrate 4-methylumbelliferyl-N-acetyl-b-D-glucosaminide.
# On the day of the assay, the lyophilized peptides were dissolved in DMSO and/or PBS 1× pH 7.4, to obtain stock solutions. The stock solutions were used to prepare working serial dilutions to have final concentrations in assay ranging from 50, 100 or 300 to 0.1 or 0.001 μM. Each peptide was tested in biological duplicates. When compounds were dissolved in DMSO, the final solvent concentration in assay was 0.5% (v/v).
# The percentage of degranulation, expressed as % of R-hexosaminidase release, was calculated by dividing the fluorescence signal of the supernatant by the sum of the signals from the supernatant and cell pellet (lysed with Triton X-100, final 1%) and multiplying by 100.
# Dose-response curves were generated by plotting the % of R-hexosaminidase release versus total release of cells treated with triton (y-axis) against the concentrations of peptides tested (x-axis). The Mast Cell Degranulation (MCD) EC50 values and standard errors were calculated using XLfit 5.5.0.5 based on the following equation:
# 4 Parameter Sigmoidal Model: f=(A+((B−A)/(1+((C/x)^D))))
# where A=Emin, B=Emax, C=EC50 and D=slope
row,Structure (SMILES),EC50
1,CC[C@H](C)[C@H](NC(C)=O)C(=O)N[C@H](C(=O)N[C@@H](CC(C)C)C(=O)N[C@@H](CO)C(=O)N[C@@H](CC(C)C)C(=O)N[C@@H](CC(=O)O)C(=O)N[C@@H](C(=O)N1CCC[C@H]1C(=O)N[C@H](C(=O)N[C@@H](C)C(=O)N[C@@H](CC(C)C)C(=O)N[C@@H](CCCCNC(=O)CC[C@H](NC(=O)CCCCCCCCCCCCCCC(=O)O)C(=O)O)C(=O)N[C@@H](CCCCN)C(=O)N[C@H](C(=O)N[C@@H](CC(C)C)C(=O)N[C@@H](CC(C)C)C(=O)N[C@@H](CCC(=O)O)C(=O)N[C@@H](CCC(N)=O)C(=O)N[C@@H](CCC(=O)O)C(=O)N[C@@H](CCCCN)C(=O)N[C@@H](CCC(N)=O)C(=O)N[C@@H](CCCCN)C(=O)N[C@@H](CCCCN)C(=O)N[C@@H](CCC(N)=O)C(=O)N[C@@H](CCCNC(=N)N)C(=O)N[C@@H](CCC(=O)O)C(=O)N[C@@H](CCC(N)=O)C(=O)N[C@@H](C)C(=O)N[C@@H](CCC(=O)O)C(=O)N[C@H](C(=O)N[C@@H](CC(N)=O)C(=O)NC(C)(C)C(=O)N[C@@H](CCC(N)=O)C(=O)N[C@H](C(=O)N[C@@H](CC(C)C)C(=O)N[C@@H](C)C(=O)N[C@@H](CCC(N)=O)C(=O)N[C@H](C(N)=O)C(C)C)[C@@H](C)CC)[C@@H](C)O)[C@@H](C)CC)[C@@H](C)CC)C(C)C)C(C)C [Cmpd 163] (Ac-IVLSLD[dV]PIALK([γGlu-C16 diacid])KILLEQEKQKKQREQAETN[Aib]QILAQV-NH2),> 100 µM
2,CC[C@H](C)[C@H](NC(C)=O)C(=O)N[C@H](C(=O)N[C@@H](CC(C)C)C(=O)N[C@@H](CO)C(=O)N[C@@H](CC(C)C)C(=O)N[C@@H](CC(=O)O)C(=O)N[C@@H](C(=O)N1CCC[C@H]1C(=O)N[C@H](C(=O)N[C@@H](CCCCN)C(=O)N[C@@H](CC(C)C)C(=O)N[C@@H](CCCCNC(=O)CC[C@H](NC(=O)CCCCCCCCCCCCCCC(=O)O)C(=O)O)C(=O)N[C@@H](CCCCN)C(=O)N[C@H](C(=O)N[C@@H](CC(C)C)C(=O)N[C@@H](CC(C)C)C(=O)N[C@@H](CCC(=O)O)C(=O)N[C@@H](CCC(N)=O)C(=O)N[C@@H](CCC(=O)O)C(=O)N[C@@H](C)C(=O)N[C@@H](CCC(N)=O)C(=O)N[C@@H](CCCCN)C(=O)N[C@@H](CCCCN)C(=O)N[C@@H](CCC(N)=O)C(=O)N[C@@H](CCCNC(=N)N)C(=O)N[C@@H](CCC(=O)O)C(=O)N[C@@H](CCC(N)=O)C(=O)N[C@@H](C)C(=O)N[C@@H](CCC(=O)O)C(=O)N[C@H](C(=O)N[C@@H](CC(N)=O)C(=O)NC(C)(C)C(=O)N[C@@H](CCC(N)=O)C(=O)N[C@H](C(=O)N[C@@H](CC(C)C)C(=O)N[C@@H](C)C(=O)N[C@@H](CCC(N)=O)C(=O)N[C@H](C(N)=O)C(C)C)[C@@H](C)CC)[C@@H](C)O)[C@@H](C)CC)[C@@H](C)CC)C(C)C)C(C)C [Cmpd 165] (Ac-IVLSLD[dV]PIKLK([γGlu-C16 diacid])KILLEQEAQKKQREQAETN[Aib]QILAQV-NH2),> 100 µM
3,CC[C@H](C)[C@H](NC(C)=O)C(=O)N[C@H](C(=O)N[C@@H](CC(C)C)C(=O)N[C@@H](CO)C(=O)N[C@@H](CC(C)C)C(=O)N[C@@H](CC(=O)O)C(=O)N[C@@H](C(=O)N1CCC[C@H]1C(=O)N[C@H](C(=O)N[C@@H](CCCCN)C(=O)N[C@@H](CC(C)C)C(=O)N[C@@H](CCCCNC(=O)CC[C@H](NC(=O)CCCCCCCCCCCCCCC(=O)O)C(=O)O)C(=O)N[C@@H](CCCCN)C(=O)N[C@H](C(=O)N[C@@H](CC(C)C)C(=O)N[C@@H](CC(C)C)C(=O)N[C@@H](CCC(=O)O)C(=O)N[C@@H](CCC(N)=O)C(=O)N[C@@H](CCC(=O)O)C(=O)N[C@@H](CCCCN)C(=O)N[C@@H](CCC(N)=O)C(=O)N[C@@H](CCCCN)C(=O)NC(C)(C)C(=O)N[C@@H](CCC(N)=O)C(=O)N[C@@H](CCCNC(=N)N)C(=O)N[C@@H](CCC(=O)O)C(=O)N[C@@H](CCC(N)=O)C(=O)N[C@@H](C)C(=O)N[C@@H](CCC(=O)O)C(=O)N[C@H](C(=O)N[C@@H](CC(N)=O)C(=O)NC(C)(C)C(=O)N[C@@H](CCC(N)=O)C(=O)N[C@H](C(=O)N[C@@H](CC(C)C)C(=O)N[C@@H](C)C(=O)N[C@@H](CCC(N)=O)C(=O)N[C@H](C(N)=O)C(C)C)[C@@H](C)CC)[C@@H](C)O)[C@@H](C)CC)[C@@H](C)CC)C(C)C)C(C)C [Cmpd 162] (Ac-IVLSLD[dV]PIKLK([γGlu-C16 diacid])KILLEQEKQK[Aib]QREQAETN[Aib]QILAQV-NH2),> 50 µM
4,CC[C@H](C)[C@H](NC(C)=O)C(=O)N[C@H](C(=O)N[C@@H](CC(C)C)C(=O)N[C@@H](CO)C(=O)N[C@@H](CC(C)C)C(=O)N[C@@H](CC(=O)O)C(=O)N[C@@H](C(=O)N1CCC[C@H]1C(=O)N[C@H](C(=O)N[C@@H](CCCCN)C(=O)N[C@@H](CC(C)C)C(=O)N[C@@H](CCCCNC(=O)CC[C@H](NC(=O)CCCCCCCCCCCCCCC(=O)O)C(=O)O)C(=O)N[C@@H](CCCCN)C(=O)N[C@H](C(=O)N[C@@H](CC(C)C)C(=O)N[C@@H](CC(C)C)C(=O)N[C@@H](CCC(=O)O)C(=O)N[C@@H](CCC(N)=O)C(=O)N[C@@H](CCC(=O)O)C(=O)N[C@@H](CCCCN)C(=O)N[C@@H](CCC(N)=O)C(=O)N[C@@H](C)C(=O)N[C@@H](CCCCN)C(=O)N[C@@H](CCC(N)=O)C(=O)N[C@@H](CCCNC(=N)N)C(=O)N[C@@H](CCC(=O)O)C(=O)N[C@@H](CCC(N)=O)C(=O)N[C@@H](C)C(=O)N[C@@H](CCC(=O)O)C(=O)N[C@H](C(=O)N[C@@H](CC(N)=O)C(=O)NC(C)(C)C(=O)N[C@@H](CCC(N)=O)C(=O)N[C@H](C(=O)N[C@@H](CC(C)C)C(=O)N[C@@H](C)C(=O)N[C@@H](CCC(N)=O)C(=O)N[C@H](C(N)=O)C(C)C)[C@@H](C)CC)[C@@H](C)O)[C@@H](C)CC)[C@@H](C)CC)C(C)C)C(C)C [Cmpd 166] (Ac-IVLSLD[dV]PIKLK([γGlu-C16 diacid])KILLEQEKQAKQREQAETN[Aib]QILAQV-NH2),> 100 µM
5,CC[C@H](C)[C@H](N)C(=O)N[C@H](C(=O)N[C@@H](CC(C)C)C(=O)N[C@@H](CO)C(=O)N[C@@H](CC(C)C)C(=O)N[C@@H](CC(=O)O)C(=O)N[C@H](C(=O)N1CCC[C@H]1C(=O)N[C@H](C(=O)N[C@@H](CCCCN)C(=O)N[C@@H](CC(C)C)C(=O)N[C@@H](CCCCNC(=O)COCCOCCNC(=O)COCCOCCNC(=O)CC[C@H](NC(=O)CCCCCCCCCCCCCCCCC(=O)O)C(=O)O)C(=O)N[C@@H](CCCCN)C(=O)N[C@H](C(=O)N[C@@H](CC(C)C)C(=O)N[C@@H](CC(C)C)C(=O)N[C@@H](CCC(=O)O)C(=O)N[C@@H](CCC(N)=O)C(=O)N[C@@H](CCC(=O)O)C(=O)N[C@@H](CCCCN)C(=O)N[C@@H](CCC(N)=O)C(=O)N[C@@H](CCCCN)C(=O)N[C@@H](CCCCN)C(=O)N[C@@H](CCC(N)=O)C(=O)N[C@@H](CCCNC(=N)N)C(=O)N[C@@H](CCC(=O)O)C(=O)N[C@@H](CCC(N)=O)C(=O)N[C@@H](C)C(=O)N[C@@H](CCC(=O)O)C(=O)N[C@H](C(=O)N[C@@H](CC(N)=O)C(=O)N[C@@H](CCCCN)C(=O)N[C@@H](CCC(N)=O)C(=O)N[C@H](C(=O)N[C@@H](CC(C)C)C(=O)N[C@@H](C)C(=O)N[C@@H](CCC(N)=O)C(=O)N[C@H](C(N)=O)C(C)C)[C@@H](C)CC)[C@@H](C)O)[C@@H](C)CC)[C@@H](C)CC)C(C)C)C(C)C [149 (comp)] (H-IVLSLDVPIKLK([AEEA-AEEA-γGlu-C18 diacid])KILLEQEKQKKQREQAETNKQILAQV-NH2),50.4 µM
